From patent publication US20240252488A1 (KOREA RESEARCH INSTITUTE OF CHEMICAL TECHNOLOGY, priority 2020, published 2024) come the findings set out here.

Experiment [1] has as its target T1, MLKL (Homo sapiens, UniProt Q8NB16).
T1 sequence (Q8NB16 1-471): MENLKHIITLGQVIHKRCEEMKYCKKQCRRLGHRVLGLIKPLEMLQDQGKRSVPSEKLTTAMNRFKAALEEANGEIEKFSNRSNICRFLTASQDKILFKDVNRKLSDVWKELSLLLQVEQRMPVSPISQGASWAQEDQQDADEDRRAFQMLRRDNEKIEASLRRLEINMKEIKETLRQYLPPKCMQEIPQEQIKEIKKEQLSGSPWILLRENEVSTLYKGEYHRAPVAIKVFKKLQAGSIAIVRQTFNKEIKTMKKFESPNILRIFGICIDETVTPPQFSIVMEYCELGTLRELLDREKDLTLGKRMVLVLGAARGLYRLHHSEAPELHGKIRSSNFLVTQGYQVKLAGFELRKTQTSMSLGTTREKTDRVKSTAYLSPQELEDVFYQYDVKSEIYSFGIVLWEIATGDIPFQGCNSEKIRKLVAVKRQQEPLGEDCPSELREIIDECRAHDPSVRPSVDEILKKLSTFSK
Description: MLKL degradation assay in HepG2 cell line (western blot). It is filed as cell-based. On the set-up: endogenous in cells; host or cells: HepG2 or HaCaT. Conditions: cell line not given; for Degradation assay (Degradation %) 1 μM: compound 1 μM; for Degradation assay (Degradation %) 10 μM: compound 10 μM. The procedure:
MLKL degradation ability was evaluated in the following method.
1 mL of Human liver cancer cell line (HepG2 cell line) or human skin cell line (HaCaT cell line) was equally distributed into each well at 2.0×10^5 cells/mL in a 12-well cell culture plate. On the next day, the medium was replaced with a medium made so that the final concentration of test compound was 1 or 10 μM (1 mL/well), and incubated in 5% CO2, at 37° C. for 20-24 hours (Thermo scientific, Forma steri-cycle).
For protein preparation after incubation, cells were washed with 1×TBST, and 60 μL of RIPA lysis buffer containing Halt™ Protease and Phosphatase Inhibitor Cocktail was dispensed into each well. After scraping the cells with a scraper, the cells were recovered, and the pallet was homogenized and reacted on ice for 30 minutes. After the cells were centrifuged at 13,000 rpm, 10 minutes, 4° C., the supernatant was transferred to a new E-tube. For protein quantification, after dispensing sample and BCA (0-4 mg/ml) in a 96 well plate, 100 μL of BCA was dispensed and reacted in a 37° C. incubator for 30 minutes. After measuring the absorbance (SpectraMax, M5e, 562 nm), the amount of the sample was adjusted with the same concentration of protein and 4× Laemmli sample buffer, DW, and reacted at 100° C. for 5 minutes.
After assembling the MP TGX Precast Gel in the Mini-PROTEAN Tetra Cell, the same protein (10-15 μg) was added in an 8-10 μL volume per well, 1×Tris-Glycine Buffer was added, and loading was performed. After loading was completed, transfer was performed using Pierce G2 Fast Blotter and Pierce 1-Step Transfer Buffer. After completion of the transfer, 10 ml of SuperBlock™ Blocking Buffer was dispensed and reacted at room temperature for 10 minutes. 5% BSA containing the primary antibody was dispensed and reacted over night at 4° C. The next day, washing was performed three times with 1×TBST at room temperature for 10 minutes. 5% BSA containing the secondary antibody was dispensed and reacted at room temperature for 1 hour. Washing was performed three times with 1×TBST at room temperature for 10 minutes. The amount of protein expression was measured using chemiluminescence (LuminoGraph, ATTO).

Experiment [2] addresses T1, MLKL. Description: Measurement of binding affinity with MLKL receptor (competitive binding assay, Kd). Set-up: made in house; host or cells: HEK 293 cell line (T7 phage in E. coli BL21-derived host is also described). The method, boiled down: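 MLKL was produced in HEK 293 cells and tagged with DNA for detection. Liganded beads were blocked with excess biotin and washed to cut non-specific binding, then compounds (111× DMSO stocks, 0.9% DMSO in assay) competed for binding. Eluate kinase was measured by qPCR for Kd.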

The subject of a further experiment is FADD−/− Jurkat cells. Put plainly: Necroptosis inhibition assay, TNF-α-induced necroptosis (CellTiter-Glo 2.0). It is filed as cell-based, human. The following applies: TNF-α 15 ng/mL; for Necroptosis inhibition assay (Rescue %) 1 μM: compound 1 μM; for Necroptosis inhibition assay (Rescue %) 10 μM: compound 10 μM. The procedure, abridged: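 Tested at three fixed concentrations (0.1, 1, 10 μM final) with a 30-minute room-temperature preincubation ahead of 15 ng/mL TNF-α challenge lasting 20 to 24 hours. Inhibition rate and cytotoxicity derive from ATP luminescence.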
In general terms: ATP-based viability assays read luminescence as a measure of living cells.

`Nc1ncc(-c2cnn(C3CCN(C(=O)CCCCCC#Cc4cccc5c4CN(C4CCC(=O)NC4=O)C5=O)CC3)c2)nc1C(=O)O[C@@H](C(=O)Nc1ccc(F)cc1)c1ccccc1` (stereo partly drawn) [TDH-423, (R)-2-((4-fluorophenyl)amino)-2-oxo-1-phenylethyl 3-amino-6-(1-(1-(8-(2-(2,6-dioxopiperidin-3-yl)-1-oxoisoindolin-4-yl)oct-7-ynoyl)piperidin-4-yl)-1H-pyrazol-4-yl)pyrazine-2-carboxylate]: on MLKL [1], the “Degradation assay (Degradation %) 1 μM” value was 61.54% and the “Degradation assay (Degradation %) 10 μM” value is 39.01%. Besides, the Kd (usually the equilibrium constant for the complex coming apart) on MLKL [2] was found to be 9.8 nM.

Consider `Nc1ncc(-c2cnn(C3CCN(CCCCCCCCCCNC(=O)C4CN(c5cccc6c5C(=O)N(C5CCC(=O)NC5=O)C6=O)C4)CC3)c2)nc1C(=O)O[C@@H](C(=O)Nc1ccc(F)cc1)c1ccccc1` (stereo partly drawn) [TDH-158, (R)-2-((4-fluorophenyl)amino)-2-oxo-1-phenylethyl 3-amino-6-(1-(1-(10-(1-(2-(2,6-dioxopiperidin-3-yl)-1,3-dioxoisoindolin-4-yl)azetidine-3-carboxamido)decyl)piperidin-4-yl)-1H-pyrazol-4-yl)pyrazine-2-carboxylate], for which, at MLKL [1], the “Degradation assay (Degradation %) 1 μM” value was determined as 49.22% and the “Degradation assay (Degradation %) 10 μM” value was determined as 39.81%. In addition, on MLKL [2], binding was put at a Kd of 35 nM.

For the compound `Nc1ncc(C2=CCN(C(=O)CCCCCNC(=O)C3CCN(c4ccc5c(c4)C(=O)N(C4CCC(=O)NC4=O)C5=O)CC3)CC2)cc1C(=O)O[C@@H](C(=O)Nc1ccc(F)cc1)c1ccccc1` (stereo partly drawn) [TDH-074, (R)-2-((4-fluorophenyl)amino)-2-oxo-1-phenylethyl 6-amino-1′-(6-(1-(2-(2,6-dioxopiperidin-3-yl)-1,3-dioxoisoindolin-5-yl)piperidine-4-carboxamido)hexanoyl)-1′,2′,3′,6′-tetrahydro-[3,4′-bipyridine]-5-carboxylate], in the experiment with FADD−/− Jurkat cells, the “Necroptosis inhibition assay (Rescue %) 1 μM” value is 14.54% and the “Necroptosis inhibition assay (Rescue %) 10 μM” value turned out to be 3.61%. This compound also returned a Kd on MLKL [2] of 74 nM.

Consider `Nc1ncc(C2=CCN(C(=O)COCCOCCNC(=O)CNc3cccc4c3C(=O)N(C3CCC(=O)NC3=O)C4=O)CC2)cc1C(=O)O[C@@H](C(=O)Nc1ccc(F)cc1)c1ccccc1` (stereo partly drawn) [TDH-084, (R)-2-((4-fluorophenyl)amino)-2-oxo-1-phenylethyl 6-amino-1′-(2-(2-(2-(2-((2-(2,6-dioxopiperidin-3-yl)-1,3-dioxoisoindolin-4-yl)amino)acetamido)ethoxy)ethoxy)acetyl)-1′,2′,3′,6′-tetrahydro-[3,4′-bipyridine]-5-carboxylate], for which, in the experiment with FADD−/− Jurkat cells, the “Necroptosis inhibition assay (Rescue %) 1 μM” value is on record as 14.91% and the “Necroptosis inhibition assay (Rescue %) 10 μM” value is 3.95%. At MLKL [2], this compound had a Kd of 19 nM.

On to `Nc1ncc(-c2ccc(N3CCN(CC4CCN(C(=O)C5CCN(c6cccc7c6C(=O)N(C6CCC(=O)NC6=O)C7=O)CC5)CC4)CC3)nc2)nc1C(=O)OC(C(=O)Nc1ccc(F)cc1)c1ccccc1` (stereo not drawn) [TDH-230, 2-((4-fluorophenyl)amino)-2-oxo-1-phenylethyl 3-amino-6-(6-(4-((1-(1-(2-(2,6-dioxopiperidin-3-yl)-1,3-dioxoisoindolin-4-yl)piperidine-4-carbonyl)piperidin-4-yl)methyl)piperazin-1-yl)pyridin-3-yl)pyrazine-2-carboxylate], for which, in the experiment with FADD−/− Jurkat cells, the “Necroptosis inhibition assay (Rescue %) 1 μM” value worked out at 7.4% and the “Necroptosis inhibition assay (Rescue %) 10 μM” value came out at 10.64%. Moreover, the Kd at MLKL [2] was 140 nM.

Take `Cl.Nc1ncc(-c2cnn(C3CCNCC3)c2)cc1C(=O)O[C@@H](C(=O)Nc1ccc(F)cc1)c1ccccc1` [TDH-112, (R)-2-((4-fluorophenyl)amino)-2-oxo-1-phenylethyl 2-amino-5-(1-(piperidin-4-yl)-1H-pyrazol-4-yl)nicotinate hydrochloride]: the “Necroptosis inhibition assay (Rescue %) 1 μM” value with FADD−/− Jurkat cells was determined as 20.24%. At MLKL [2], this compound came in with a Kd of 2 nM.

With `Nc1ncc(-c2cnn(C3CCN(CCOCCOCCNc4cccc5c4C(=O)N(C4CCC(=O)NC4=O)C5=O)CC3)c2)nc1C(=O)O[C@@H](C(=O)Nc1ccc(F)cc1)c1ccccc1` (stereo partly drawn) [TDH-121, (R)-2-((4-fluorophenyl)amino)-2-oxo-1-phenylethyl 3-amino-6-(1-(1-(2-(2-(2-((2-(2,6-dioxopiperidin-3-yl)-1,3-dioxoisoindolin-4-yl)amino)ethoxy)ethoxy)ethyl)piperidin-4-yl)-1H-pyrazol-4-yl)pyrazine-2-carboxylate], in the experiment on FADD−/− Jurkat cells, the “Necroptosis inhibition assay (Rescue %) 1 μM” value is reported as 2.96%. This compound registered a Kd at MLKL [2] of 4.6 nM.

`Nc1ncc(-c2cnn(C3CCN(CCCN4CCN(C(=O)CNc5ccc6c(c5)C(=O)N(C5CCC(=O)NC5=O)C6=O)CC4)CC3)c2)nc1C(=O)N[C@@H](C(=O)Nc1ccc(F)cc1)c1ccccc1` (stereo partly drawn) [TDH-493, 3-amino-6-(1-(1-(3-(4-((2-(2,6-dioxopiperidin-3-yl)-1,3-dioxoisoindolin-5-yl)glycyl)piperazin-1-yl)propyl)piperidin-4-yl)-1H-pyrazol-4-yl)-N-((R)-2-((4-fluorophenyl)amino)-2-oxo-1-phenylethyl)pyrazine-2-carboxamide]: in the experiment with FADD−/− Jurkat cells (FADD−/− Jurkat cells), the “Necroptosis inhibition assay (Rescue %) 1 μM” value worked out at 1.49% and the “Necroptosis inhibition assay (Rescue %) 10 μM” value was −3.98%. Besides, binding at MLKL [2] was put at a Kd of 91 nM.

Turning to `Nc1ncc(-c2cn(C3CCN(CC4CCN(C(=O)C5CCN(c6ccc7c(c6)C(=O)N(C6CCC(=O)NC6=O)C7=O)CC5)CC4)CC3)nn2)nc1C(=O)OC(C(=O)Nc1ccc(F)cc1)c1ccccc1` (stereo not drawn) [TDH-221, 2-((4-fluorophenyl)amino)-2-oxo-1-phenylethyl 3-amino-6-(1-(1-((1-(1-(2-(2,6-dioxopiperidin-3-yl)-1,3-dioxoisoindolin-5-yl)piperidine-4-carbonyl)piperidin-4-yl)methyl)piperidin-4-yl)-1H-1,2,3-triazol-4-yl)pyrazine-2-carboxylate], in the experiment with FADD−/− Jurkat cells, the “Necroptosis inhibition assay (Rescue %) 1 μM” value was found to be 53.65% and the “Necroptosis inhibition assay (Rescue %) 10 μM” value was 54.23%. Moreover, the Kd on MLKL [2] worked out at 27 nM.

`Nc1ncc(-c2cnn(C3CCN(CCOCCOCCNc4ccc5c(c4)C(=O)N(C4CCC(=O)NC4=O)C5=O)CC3)c2)nc1C(=O)N[C@@H](C(=O)Nc1ccc(F)cc1)c1ccccc1` (stereo partly drawn) [TDH-216, 3-amino-6-(1-(1-(2-(2-(2-((2-(2,6-dioxopiperidin-3-yl)-1,3-dioxoisoindolin-5-yl)amino)ethoxy)ethoxy)ethyl)piperidin-4-yl)-1H-pyrazol-4-yl)-N-((R)-2-((4-fluorophenyl)amino)-2-oxo-1-phenylethyl)pyrazine-2-carboxamide]: in the experiment with FADD−/− Jurkat cells, the “Necroptosis inhibition assay (Rescue %) 1 μM” value is reported as 21.7% and the “Necroptosis inhibition assay (Rescue %) 10 μM” value amounted to 38.63%. Besides, at MLKL [2], binding was characterised by a dissociation constant (Kd) of 43 nM.

Take `Nc1ncc(C2=CCN(C(=O)CCCCCNC(=O)COc3cccc4c3C(=O)N(C3CCC(=O)NC3=O)C4=O)CC2)cc1C(=O)O[C@@H](C(=O)Nc1ccc(F)cc1)c1ccccc1` (stereo partly drawn) [TDH-081, (R)-2-((4-fluorophenyl)amino)-2-oxo-1-phenylethyl 6-amino-1′-(6-(2-((2-(2,6-dioxopiperidin-3-yl)-1,3-dioxoisoindolin-4-yl)oxy)acetamido)hexanoyl)-1′,2′,3′,6′-tetrahydro-[3,4′-bipyridine]-5-carboxylate]: the “Necroptosis inhibition assay (Rescue %) 1 μM” value in the experiment on FADD−/− Jurkat cells amounted to 6.8%. Also, the Kd on MLKL [2] was determined as 50 nM.
